Test results taken from US10689381B2 (priority 2017, dated 2020).
Where two headings read alike, the source gives them in different places.

Key:
[1] = tested on: HCT116; experiment: cells; format: cell-based, human
Method in brief: (§1)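 Compound exposure ran 72 h at six concentrations (0–1000 nM or 0–10000 nM, duplicate) on cells plated at 30,000 cells/mL in 10% FBS DMEM. A closing 37 °C incubation took 15 min (HCT116) or 5 min (L1210).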

[2] = tested on: HCT116/VM46; experiment: cells; format: cell-based, human; conditions: for differential in activity between sensitive and resistant HCT116 cell lines: HCT116/VM46 vs HCT116
Protocol: Compounds were tested for their cell growth inhibition of L1210 (ATCC no. CCL-219, mouse lymphocytic leukemia), HCT116 (ATCC no. CCL-247, human colorectal carcinoma), and HCT116/VM46 (a vinblastine-resistant strain of HCT116) cells in culture. A population of cells (>1×10^6 cells/mL as determined with a hemocytometer) was diluted with Dulbecco's Modified Eagle Medium (DMEM, Gibco) containing 10% fetal bovine serum (FBS, Gibco) to give a final concentration of 30,000 cells/mL. To each well of a 96-well plate (Corning® Costar®) was added 100 μL of the cell media solution with a multichannel pipet. The cultures were incubated at 37° C. in an atmosphere of 5% CO2 and 95% humidified air for 24 hours.
The test compounds were then added to the plate as follows: test compounds were diluted in DMSO to a concentration of 1 mM. 10-Fold serial dilutions in DMSO were next performed on a separate 96-well plate. Fresh culture media (100 μL) was added to each well of cells resulting in 200 μL of medium per well followed by 2 μL of each test agent. Compounds were tested in duplicate (n=2-8 times) at six concentrations between 0-1000 nM or 0-10000 nM. Following the addition of compound, cultures were incubated for an additional 72 hours.
The plates were incubated at 37° C. for 5 minutes (L1210) or 15 min (HCT116 and HCT116/VM46). After the given incubation time, 50 μL of 0.1 N NaOH was added to each well and the absorption at 405 nm was determined using a 96 well plate reader. […]

[3] = tested on: A549-T24; experiment: cells; format: cell-based, human
Excerpt: (§2) 2001, 98:11737; Kavallaris et al., Brit. J. Cancer. 1999, 80:1020; and Kavallaris et al., J. Clin. Invest. 1997, 100:1282]. As a result, the comparison of cell growth inhibition of candidate drugs against A549 vs A549-T24 has been used to characterize potential resistance due to increased expression of class III β-tubulin [Goncalves et al., Proc. Natl. Acad. Sci. USA. 2001, 98:11737; Kavallaris et al., Brit. J. Cancer. 1999, 80:1020; and Kavallaris et al., J. Clin. Invest. 1997, 100:1282].

[4] = tested on: A549; experiment: cells; format: cell-based, human
Excerpt: as §2

[5] = tested on: L1210; experiment: cells; format: cell-based, mouse
Method in brief: as §1

[6] = tested on: L1210; conditions: Table 1, footnote b: Reported in ref. 41; cited from earlier work
[7] = tested on: HCT116; conditions: Table 1, footnote b: Reported in ref. 41; cited from earlier work
[8] = cells; format: cell-based, human; conditions: range over L1210 and HCT116, stated in text; read-out: IC50 against vinblastine-sensitive cell lines
Method in brief: as §1

[9] = tested on: Tubulin; conditions: for % displacement: Table 9, displacement of tubulin bound BODIPY-vinblastine
Protocol: Control studies were performed with BODIPY-VBL in the absence of a competitive ligand (control 1, maximum FI enhancement) and in the absence of tubulin (control 2, no FI enhancement). Percent (%) BODIPY-VBL displacement was calculated by the formula: (control 1 FI−experiment FI)/(Control 1 FI−Control 2 FI)×100%. Reported values are the average of 5 measurements±SD.

[10] = table b183, value in parentheses
[11] = vinblastine-sensitive cell lines
[12] = Table 9, read-out: IC50 (nM, HCT116)
[13] = Table 10, read-out: IC50 (nM), HCT116
[14] = Table 10, read-out: IC50 (nM), HCT116/VM46

**Q.** What does the source list for CC(=O)O[C@H]1C(=O)[C@@]2(C)[C@H]([C@H](OC(=O)c3ccccc3)[C@]3(O)C[C@H](OC(=O)[C@H](O)[C@@H](NC(=O)c4ccccc4)c4ccccc4)C(C)=C1C3(C)C)[C@]1(OC(C)=O)CO[C@@H]1C[C@@H]2O [Taxol, reference compound]?
**A.** IC50 ([1]; Homo sapiens, HCT-116, table b183, read-out: IC50 HCT116): 4.1 nM; IC50 ([2]; Homo sapiens, HCT-116/VM46, table b183, read-out: IC50 HCT116/VM46): > 200 nM; Measured fold resistant vs wt HCT116 [2, 10]: > 50; loss in potency A549-T24 relative to wild type A549 [3]: 10 fold; IC50 ([3]; Homo sapiens): 70 nM; Measured fold resistant vs wt A549 [3, 10]: 10; IC50 ([4]; Homo sapiens, A549, read-out: IC50 A549): 7.1 nM; IC50 ([4]; Homo sapiens, A549, read-out: IC50 wild type A549): 7.1 nM

**Q.** With CCC1(NC=O)CC2CN(CCc3c([nH]c4ccccc34)C(C(=O)OC)(c3cc4c(cc3OC)N(C)C3C(O)(C(=O)OC)C(OC(C)=O)C5(CC)C=CCN6CCC43C65)C2)C1 (stereo not shown) [Compound 9] as the compound, how does the IC50 [5] read?
**A.** Its IC50 is 0.5 nM.

**Q.** And the “activity relative to free amine Compound 6 (more active)” value [1]?
**A.** Its value is 10 fold.

**Q.** And the IC50 ([1]; read-out: IC50 HCT116)?
**A.** Its IC50 is 0.6 nM.

**Q.** What about the “potency relative to vinblastine (less potent / reduced activity)” value [1, 11] of the same compound?
**A.** Its value is “approximately 10 fold”.

**Q.** What about the “differential in activity between sensitive and resistant HCT116 cell lines” value [2] of the same compound?
**A.** Its value is ~80 fold.

**Q.** And the IC50 ([2]; read-out: IC50 HCT116/VM46)?
**A.** The IC50 was 7.5 nM.

**Q.** What about the IC50 [3] of the same compound?
**A.** Its IC50 is 0.7 nM.

**Q.** What about the IC50 ([4]; read-out: IC50 A549) of the same compound?
**A.** The IC50 was 0.7 nM.

**Q.** What about the IC50 [6] of the same compound?
**A.** The IC50 was 65 nM.

**Q.** And the IC50 [7]?
**A.** The IC50 was 85 nM.

**Q.** For CCC1(NC(=O)c2ccc3c(c2)CCCO3)CC2CN(CCc3c([nH]c4ccccc34)C(C(=O)OC)(c3cc4c(cc3OC)N(C)C3C(O)(C(=O)OC)C(OC(C)=O)C5(CC)C=CCN6CCC43C65)C2)C1 (stereo not shown) [Compound 173], which IC50 [5] is on record?
**A.** The IC50 was 0.4 nM.

**Q.** What about the IC50 ([5]; Table 6) of the same compound?
**A.** The IC50 was 0.4 nM.

**Q.** What about the IC50 [8] of the same compound?
**A.** Its IC50 is 0.4 to 0.5 nM.

**Q.** What about the IC50 ([1]; Table 6, read-out: IC50 HCT116) of the same compound?
**A.** Its IC50 is 0.5 nM.

**Q.** And the IC50 [1, 12]?
**A.** Its IC50 is 0.5 nM.

**Q.** And the IC50 [1, 13]?
**A.** Its IC50 is 0.5 nM.

**Q.** What about the IC50 ([1]; read-out: IC50 HCT116) of the same compound?
**A.** The IC50 was 0.5 nM.

**Q.** What about the “differential in activity between sensitive and resistant HCT116 cell lines” value [2] of the same compound?
**A.** Its value is 3.8 fold.

**Q.** And the IC50 ([2]; Table 6, read-out: IC50 HCT116/VM46)?
**A.** Its IC50 is 1.8 nM.

**Q.** What about the IC50 [2, 14] of the same compound?
**A.** The IC50 was 1.8 nM.

**Q.** What about the IC50 ([2]; read-out: IC50 HCT116/VM46) of the same compound?
**A.** The IC50 was 1.8 nM.

**Q.** And the IC50 ([2]; read-out: IC50 against resistant HCT116 cell line)?
**A.** The IC50 was 1.8 nM.

**Q.** And the IC50 [3]?
**A.** Its IC50 is 0.8 nM.

**Q.** And the IC50 ([4]; read-out: IC50 A549)?
**A.** Its IC50 is 1.4 nM.

**Q.** And the “% displacement” value [9]?
**A.** The value was 98 ± 7%.

**Q.** What does the source list for CCC1(NC(=O)c2ccc3c(c2)CCCC3)CC2CN(CCc3c([nH]c4ccccc34)C(C(=O)OC)(c3cc4c(cc3OC)N(C)C3C(O)(C(=O)OC)C(OC(C)=O)C5(CC)C=CCN6CCC43C65)C2)C1 (stereo not shown) [Compound 121]?
**A.** IC50 [5]: 3 nM; IC50 ([5]; Table 4): 3.3 nM; IC50 ([1]; Table 4, read-out: IC50 HCT116): 4.9 nM; IC50 [1, 12]: 4.9 nM; IC50 [1, 13]: 4.9 nM; IC50 ([1]; read-out: IC50 HCT116): 4.9 nM; potency relative to vinblastine (more potent) [1, 11]: about 2 fold; IC50 [3]: 6.5 nM; IC50 ([4]; read-out: IC50 A549): 7.6 nM; % displacement [9]: 63 ± 5%; relative tubulin binding affinity vs vinblastine ([9]; in words, b167): essentially indistinguishable from or perhaps slightly better than that of vinblastine

**Q.** What does the source list for CC[C@]1(NC(=O)c2ccc(C)c(C)c2)C[C@H]2CN(CCc3c([nH]c4ccccc34)[C@@](C(=O)OC)(c3cc4c(cc3OC)N(C)[C@H]3[C@@](O)(C(=O)OC)[C@H](OC(C)=O)[C@]5(CC)C=CCN6CC[C@]43[C@@H]65)C2)C1 [Compound 28]?
**A.** IC50 [5]: 3 nM; IC50 ([5]; Table 2): 3 nM; IC50 ([1]; Table 2, read-out: IC50 HCT116): 4.5 nM; IC50 [1, 12]: 4.5 nM; IC50 [1, 13]: 4.5 nM; IC50 ([1]; read-out: IC50 HCT116): 4.5 nM; IC50 ([2]; Table 2, read-out: IC50 HCT116/VM46): 7.6 nM; IC50 [2, 14]: 7.6 nM; IC50 ([2]; read-out: IC50 HCT116/VM46): 7.6 nM; IC50 [3]: 2.5 nM; IC50 ([4]; read-out: IC50 A549): 5 nM; % displacement [9]: 67 ± 8%

**Q.** For CCC1(NC(=O)c2ccc(NC(C)=O)cc2)CC2CN(CCc3c([nH]c4ccccc34)C(C(=O)OC)(c3cc4c(cc3OC)N(C)C3C(O)(C(=O)OC)C(OC(C)=O)C5(CC)C=CCN6CCC43C65)C2)C1 (stereo not shown) [Compound 58], which IC50 [5] is on record?
**A.** The IC50 was 0.06 nM.

**Q.** And the IC50 ([5]; Table 2)?
**A.** The IC50 was 1.6 nM.

**Q.** What about the IC50 ([1]; Table 2, read-out: IC50 HCT116) of the same compound?
**A.** The IC50 was 0.8 nM.

**Q.** And the IC50 ([1]; read-out: IC50 HCT116)?
**A.** The IC50 was 0.07 nM.

**Q.** And the IC50 [3]?
**A.** Its IC50 is 0.13 nM.

**Q.** What about the IC50 ([4]; read-out: IC50 A549) of the same compound?
**A.** Its IC50 is 0.17 nM.

**Q.** Which IC50 [6] does the source give for CC[C@]1(NC(=O)C(F)(F)F)C[C@H]2CN(CCc3c([nH]c4ccccc34)[C@@](C(=O)OC)(c3cc4c(cc3OC)N(C)[C@H]3[C@@](O)(C(=O)OC)[C@H](OC(C)=O)[C@]5(CC)C=CCN6CC[C@]43[C@@H]65)C2)C1 [Compound 11] here?
**A.** Its IC50 is 660 nM.

**Q.** And the IC50 [7]?
**A.** Its IC50 is 690 nM.
